Measured values reported in US9139587B2, “N1-pyrazolospiroketone acetyl-CoA carboxylase inhibitors” (Pfizer Inc., priority 2009, dated 2015).
pIC50: −log10 of the molar value.

Legend:
[1] = target: T1, recombinant human ACC1 (rhACC1) (Homo sapiens, UniProt Q13085, DEL44-44); assay: recombinant hACC1 Transcreener assay (direct inhibition of ACC1 activity); format: biochemical; settings: Transcreener ADP detection FP assay, 50 μM ATP, 30 μM acetyl-CoA, 120 min at 25° C.
T1 construct: recombinant baculovirus containing full length human ACC1 cDNA; made in house; host or cells: SF9 insect cells (baculovirus)
How it was run: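 Full-length human ACC1 from baculovirus-infected SF9 cells, dephosphorylated with lambda phosphatase. Reaction in 50 mM HEPES pH 7.2 with 30 μM acetyl-CoA, 50 μM ATP, 10 mM KHCO3, 120 min at 25° C; ADP detected by Transcreener fluorescence polarisation.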

[2] = target: T2, recombinant human ACC2 (rhACC2) (Homo sapiens, UniProt O00763, V2141I); assay: recombinant hACC2 Transcreener assay (direct inhibition of ACC2 activity); format: biochemical; settings: Transcreener ADP detection FP assay, 50 μM ATP, 30 μM acetyl-CoA, 50 min at 25° C.
T2 construct: a full length Cytomax clone of ACC2 was purchased from Cambridge Bioscience Limited; made in house; host or cells: CHO cells (tetracycline-induced, pcDNA5 FRT TO-TOPO)
How it was run: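 Full-length human ACC2 was expressed in CHO cells and avidin-purified. ADP formation was measured by Transcreener FP in 50 mM HEPES pH 7.2 with 30 μM acetyl-CoA, 50 μM ATP, 8 mM KHCO3 and 5 mM citrate. Reactions ran 50 min at 25 °C with 1% DMSO, then 1 h with stop/detect reagent.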

Structure (SMILES)	pIC50 [1]	pIC50 [2]
CC(C)n1ncc2c1C(=O)CC1(CCN(C(=O)c3ccc(N4CCOCC4)nc3)CC1)C2 [Example 11A-24]	5.22	6.08
Cc1nn(C)c(C(=O)N2CCC3(CC2)CC(=O)c2c(cnn2C(C)(C)C)C3)c1O [Example 11A-25]	6.48	6.13
CC(C)(C)n1ncc2c1C(=O)CC1(CCN(C(=O)c3ccnc(-c4cc[nH]n4)c3)CC1)C2 [Example 11A-26]	6.89	7.38
Cc1ccn2cc(C(=O)N3CCC4(CC3)CC(=O)c3c(cnn3C(C)(C)C)C4)nc2c1 [Example 11A-27]	6.23	6.51
CC(C)n1ncc2c1C(=O)CC1(CCN(C(=O)c3cn4ccccc4n3)CC1)C2 [Example 11A-28]	6.04	6.41
CC(C)(C)n1ncc2c1C(=O)CC1(CCN(C(=O)c3cc(-c4cccnc4)[nH]n3)CC1)C2 [Example 11A-29]	6.82	7.19
CNc1nc(C)ccc1C(=O)N1CCC2(CC1)CC(=O)c1c(cnn1C(C)(C)C)C2 [Example 11A-30]	6.65	6.97
CC(C)n1ncc2c1C(=O)CC1(CCN(C(=O)c3cnc4cn[nH]c4c3)CC1)C2 [Example 11A-31]	6.93	7.08
CC(C)(C)n1ncc2c1C(=O)CC1(CCN(C(=O)c3ccn4cncc4c3)CC1)C2 [Example 11A-32]	6.81	7.02
CC(C)n1ncc2c1C(=O)CC1(CCN(C(=O)c3cnc4[nH]cnc4c3)CC1)C2 [Example 11A-33]	6.57	7.03
CC(C)n1ncc2c1C(=O)CC1(CCN(C(=O)c3cn4cccc4cn3)CC1)C2 [Example 11A-34]	5.67	6.20
CC(C)n1ncc2c1C(=O)CC1(CCN(C(=O)c3c[nH]c4ccnn4c3=O)CC1)C2 [Example 11A-35]	5.48	5.67
CC(C)(C)n1ncc2c1C(=O)CC1(CCN(C(=O)c3cc4ccccn4c3)CC1)C2 [Example 11A-36]	6.71	7.12
CC(C)n1ncc2c1C(=O)CC1(CCN(C(=O)c3cnc(-c4ccccn4)[nH]3)CC1)C2 [Example 11A-37]	5.99	6.33
Cc1cc(C(=O)N2CCC3(CC2)CC(=O)c2c(cnn2C(C)(C)C)C3)c(N)c(C)n1 [Example 11A-38]	5.66	5.99
CC(C)(C)n1ncc2c1C(=O)CC1(CCN(C(=O)c3cnc4[nH]cnc4c3)CC1)C2 [Example 11A-39]	7.16	7.09
Cc1ccn2cc(C(=O)N3CCC4(CC3)CC(=O)c3c(cnn3C(C)C)C4)nc2c1 [Example 11A-40]	5.94	6.23
CC(C)n1ncc2c1C(=O)CC1(CCN(C(=O)c3cccc(-c4ncc[nH]4)c3)CC1)C2 [Example 11A-41]	6.91	7.52
CC(C)n1ncc2c1C(=O)CC1(CCN(C(=O)c3ccc(N4CCOCC4)cn3)CC1)C2 [Example 11A-42]	4.93	5.55
CC(C)n1ncc2c1C(=O)CC1(CCN(C(=O)c3cc4ccccn4c3)CC1)C2 [Example 11A-43]	6.84	7.34
Cc1ccc(O)c(C(=O)N2CCC3(CC2)CC(=O)c2c(cnn2C(C)(C)C)C3)n1 [Example 11A-44]	5.38	5.34
CC(C)(C)n1ncc2c1C(=O)CC1(CCN(C(=O)c3cn4cccc4cn3)CC1)C2 [Example 11A-45]	5.82	6.13
CNc1nc(C)ccc1C(=O)N1CCC2(CC1)CC(=O)c1c(cnn1C(C)C)C2 [Example 11A-46]	6.41	7.01
CC(C)n1ncc2c1C(=O)CC1(CCN(C(=O)c3cc4cccn4cn3)CC1)C2 [Example 11A-47]	6.07	6.43
CC(C)n1ncc2c1C(=O)CC1(CCN(C(=O)c3cc4ncccc4[nH]3)CC1)C2 [Example 11A-48]	7.10	7.39
Cc1ccc(O)c(C(=O)N2CCC3(CC2)CC(=O)c2c(cnn2C(C)C)C3)n1 [Example 11A-49]	4.87	5.31

Structure (SMILES)	pIC50 [1]	pIC50 [2]
CC(C)(C)n1ncc2c1C(=O)CC1(CCN(C(=O)c3cnc(-c4ccccn4)[nH]3)CC1)C2 [Example 11A-50]	6.24	6.43
CC(C)(C)n1ncc2c1C(=O)CC1(CCN(C(=O)c3cc4cnccc4[nH]3)CC1)C2 [Example 11A-51]	6.96	6.97
CC(C)n1ncc2c1C(=O)CC1(CCN(C(=O)c3ccn4ccnc4c3)CC1)C2 [Example 11A-52]	6.26	6.75
CC(C)(C)n1ncc2c1C(=O)CC1(CCN(C(=O)c3ccc(-c4ncc[nH]4)cc3)CC1)C2 [Example 11A-53]	7.17	7.64
CC(C)n1ncc2c1C(=O)CC1(CCN(C(=O)c3ccc(-n4cncn4)cc3)CC1)C2 [Example 11A-54]	5.82	6.53
CC(C)n1ncc2c1C(=O)CC1(CCN(C(=O)c3ccc4c(c3)ncn4C)CC1)C2 [Example 11A-55]	6.67	7.22
CC(C)n1ncc2c1C(=O)CC1(CCN(C(=O)c3cc4cnccc4[nH]3)CC1)C2 [Example 11A-56]	6.00	6.44
CC(C)(C)n1ncc2c1C(=O)CC1(CCN(C(=O)c3ccc(N4CCOCC4)cn3)CC1)C2 [Example 11A-57]	5.03	5.63
CC(C)(C)n1ncc2c1C(=O)CC1(CCN(C(=O)c3cnc4cn[nH]c4c3)CC1)C2 [Example 11A-58]	6.88	7.13
CC(C)(C)n1ncc2c1C(=O)CC1(CCN(C(=O)c3ccc(-n4cccn4)nc3)CC1)C2 [Example 11A-59]	7.06	7.10
CC(C)n1ncc2c1C(=O)CC1(CCN(C(=O)c3ccn4cncc4c3)CC1)C2 [Example 11A-60]	6.39	6.77
CC(C)(C)n1ncc2c1C(=O)CC1(CCN(C(=O)c3ccc4cnccc4n3)CC1)C2 [Example 11A-61]	5.59	5.87
CC(C)n1ncc2c1C(=O)CC1(CCN(C(=O)c3cc(-c4cccnc4)[nH]n3)CC1)C2 [Example 11A-62]	6.47	6.95
CC(C)n1ncc2c1C(=O)CC1(CCN(C(=O)c3ccc(-n4ccnc4)cn3)CC1)C2 [Example 11A-63]	5.06	5.59
CC(C)(C)n1ncc2c1C(=O)CC1(CCN(C(=O)c3cccc(-c4ncc[nH]4)c3)CC1)C2 [Example 11A-64]	6.98	7.61
CC(C)n1ncc2c1C(=O)CC1(CCN(C(=O)c3ccc4[nH]cnc4n3)CC1)C2 [Example 11A-65]	5.97	6.41
CC(C)n1ncc2c1C(=O)CC1(CCN(C(=O)c3c[nH]c4c(cnn4C)c3=O)CC1)C2 [Example 11A-66]	5.39	5.86
CC(C)(C)n1ncc2c1C(=O)CC1(CCN(C(=O)c3ccn4ccnc4c3)CC1)C2 [Example 11A-67]	6.69	6.86
CC(C)(C)n1ncc2c1C(=O)CC1(CCN(C(=O)c3ccc4[nH]cnc4n3)CC1)C2 [Example 11A-68]	6.08	6.55
CC(C)(C)n1ncc2c1C(=O)CC1(CCN(C(=O)c3cc4cccn4cn3)CC1)C2 [Example 11A-69]	6.24	6.54
Cn1ncc2c(=O)c(C(=O)N3CCC4(CC3)CC(=O)c3c(cnn3C(C)(C)C)C4)c[nH]c21 [Example 11A-70]	5.73	5.98
CC(C)(C)n1ncc2c1C(=O)CC1(CCN(C(=O)c3ccc(-n4cncn4)cc3)CC1)C2 [Example 11A-72]	6.06	6.82
CC(C)(C)n1ncc2c1C(=O)CC1(CCN(C(=O)c3cc4ccncc4[nH]3)CC1)C2 [Example 11A-73]	7.43	7.43
CC(C)(C)n1ncc2c1C(=O)CC1(CCN(C(=O)c3ccc4cn[nH]c4c3)CC1)C2 [Example 11A-74]	7.63	7.77
CC(C)(C)n1ncc2c1C(=O)CC1(CCN(C(=O)c3cc4cccnc4[nH]3)CC1)C2 [Example 12A-1, 1-tert-butyl-1′-(1H-pyrrolo[2,3-b]pyridine-2-carbonyl)-4,6-dihydrospiro[indazole-5,4′-piperidin]-7(1H)-one]	7.40	7.17
CC(C)(C)n1nc(Br)c2c1C(=O)CC1(CCN(C(=O)c3cc(Br)c4[nH]c(=O)[nH]c4c3)CC1)C2 [Example 13A-1, 3-bromo-1′-(7-bromo-2-oxo-2,3-dihydro-1H-benzo[d]imidazole-5-carbonyl)-1-tert-butyl-4,6-dihydrospiro[indazole-5,4′-piperidin]-7(1H)-one]	6.58	6.50
